Experimental findings from ChEMBL document CHEMBL1201862, “PubChem BioAssay data set” (2004) are described below.

The target in test [1] is T1, Neuropeptide Y receptor type 1 (Homo sapiens, UniProt P25929).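 Further: HEK293 cells with a CNG channel challenged with NPY then isoproterenol; potency as antagonist that reverses NPY suppression of cAMP signal.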
T1 sequence (P25929 whole entry): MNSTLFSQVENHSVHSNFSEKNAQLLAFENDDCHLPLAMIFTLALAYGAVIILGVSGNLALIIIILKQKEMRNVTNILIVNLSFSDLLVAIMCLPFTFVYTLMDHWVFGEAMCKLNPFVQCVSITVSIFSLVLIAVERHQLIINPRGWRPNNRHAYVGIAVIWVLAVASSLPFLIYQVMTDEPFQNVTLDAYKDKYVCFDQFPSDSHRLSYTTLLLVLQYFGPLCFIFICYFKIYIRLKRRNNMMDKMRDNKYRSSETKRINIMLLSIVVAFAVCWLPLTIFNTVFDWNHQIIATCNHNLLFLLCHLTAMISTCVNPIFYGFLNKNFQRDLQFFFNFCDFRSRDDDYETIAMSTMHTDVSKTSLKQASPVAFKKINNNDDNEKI
The class given is functional.

In test [2] the target is T2, Neuropeptide Y receptor type 2 (Homo sapiens, UniProt P49146).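 Further: HEK293 cells expressing the receptor and a CNG channel; stimulus was NPY near EC95 followed by isoproterenol to raise cAMP; antagonist potency measured as restoring cAMP signal that NPY suppresses.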
T2 sequence (P49146 whole entry): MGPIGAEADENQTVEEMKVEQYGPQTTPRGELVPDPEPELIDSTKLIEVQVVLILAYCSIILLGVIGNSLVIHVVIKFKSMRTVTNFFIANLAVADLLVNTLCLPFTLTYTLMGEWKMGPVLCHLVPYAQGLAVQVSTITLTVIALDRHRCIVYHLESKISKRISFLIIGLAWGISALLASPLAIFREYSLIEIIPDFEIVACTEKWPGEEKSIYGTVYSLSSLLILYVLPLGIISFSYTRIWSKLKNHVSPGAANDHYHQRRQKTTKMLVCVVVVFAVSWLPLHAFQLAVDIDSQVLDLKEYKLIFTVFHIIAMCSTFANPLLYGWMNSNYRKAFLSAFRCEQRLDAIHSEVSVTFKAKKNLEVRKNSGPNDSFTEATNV
The class given is functional, cell-based.

In test [3] the target is Estrogen receptor beta (Homo sapiens, UniProt Q92731). Briefly: blockers of SRC-3 recruitment to ERβ – biochemical, ELISA, streptavidin-HRP readout, orthogonal assay, confirmation (AID 1060).
Sequence of Estrogen receptor beta (Q92731 whole entry): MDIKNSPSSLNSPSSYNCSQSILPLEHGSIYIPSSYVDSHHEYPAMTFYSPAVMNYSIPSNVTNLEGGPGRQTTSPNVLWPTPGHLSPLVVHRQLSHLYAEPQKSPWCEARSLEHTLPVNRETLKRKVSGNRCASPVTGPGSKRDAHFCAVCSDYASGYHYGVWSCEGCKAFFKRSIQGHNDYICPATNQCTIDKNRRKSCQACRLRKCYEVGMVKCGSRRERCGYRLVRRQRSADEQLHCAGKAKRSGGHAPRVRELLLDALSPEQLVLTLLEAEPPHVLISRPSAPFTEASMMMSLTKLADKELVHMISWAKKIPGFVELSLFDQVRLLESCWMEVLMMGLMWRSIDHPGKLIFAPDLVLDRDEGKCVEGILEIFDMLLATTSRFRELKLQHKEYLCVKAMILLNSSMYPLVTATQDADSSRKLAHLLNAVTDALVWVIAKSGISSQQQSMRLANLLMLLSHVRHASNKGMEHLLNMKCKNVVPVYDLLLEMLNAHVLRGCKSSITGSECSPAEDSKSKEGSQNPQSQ
The nature of test [4]: viability of uninfected HEp-2 cells – cell-based, HTS, cytotoxicity control for RSV inhibitor project, dose response (AID 2410). The class given is functional. The settings on record: human respiratory syncytial virus.
A short description of test [5]: cells.
Test [6] concerns the target T3, Polyadenylate-binding protein 1 (Homo sapiens, UniProt P11940). Put plainly: MLLE binding blockers, Cy5 peptide tracer – biochemical, fluorescence polarization, Cy5-PAM2 peptide, secondary, miRNA deadenylation inhibitor project, dose response (AID 602260). The class given is functional. The note with it: read-out: IC50_Mean. A general note: Polarisation of emitted light reports the rotation of a fluorescent probe.

In test [7] the target is T3, Polyadenylate-binding protein 1. Put plainly: MLLE domain peptide-binding blockers, IC50 – biochemical, fluorescence polarization, FITC-PAM2 peptide, dose response (AID 602259). The class given is functional. The settings on record: read-out: IC50_Mean.
The target in test [8] is T4, Protein Tat (Human immunodeficiency virus type 1 group M subtype B (isolate HXB2)(HIV-1), UniProt P04608).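 Further: tat binding to TAR RNA read out by fluorescence polarization.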
T4 sequence (P04608 whole entry): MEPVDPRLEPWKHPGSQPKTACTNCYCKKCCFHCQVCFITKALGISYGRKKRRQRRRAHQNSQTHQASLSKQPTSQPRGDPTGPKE
In kind it is functional.

The target in test [9] is T5, Apoptotic protease-activating factor 1 (Homo sapiens, UniProt O14727).
T5 sequence (O14727 whole entry): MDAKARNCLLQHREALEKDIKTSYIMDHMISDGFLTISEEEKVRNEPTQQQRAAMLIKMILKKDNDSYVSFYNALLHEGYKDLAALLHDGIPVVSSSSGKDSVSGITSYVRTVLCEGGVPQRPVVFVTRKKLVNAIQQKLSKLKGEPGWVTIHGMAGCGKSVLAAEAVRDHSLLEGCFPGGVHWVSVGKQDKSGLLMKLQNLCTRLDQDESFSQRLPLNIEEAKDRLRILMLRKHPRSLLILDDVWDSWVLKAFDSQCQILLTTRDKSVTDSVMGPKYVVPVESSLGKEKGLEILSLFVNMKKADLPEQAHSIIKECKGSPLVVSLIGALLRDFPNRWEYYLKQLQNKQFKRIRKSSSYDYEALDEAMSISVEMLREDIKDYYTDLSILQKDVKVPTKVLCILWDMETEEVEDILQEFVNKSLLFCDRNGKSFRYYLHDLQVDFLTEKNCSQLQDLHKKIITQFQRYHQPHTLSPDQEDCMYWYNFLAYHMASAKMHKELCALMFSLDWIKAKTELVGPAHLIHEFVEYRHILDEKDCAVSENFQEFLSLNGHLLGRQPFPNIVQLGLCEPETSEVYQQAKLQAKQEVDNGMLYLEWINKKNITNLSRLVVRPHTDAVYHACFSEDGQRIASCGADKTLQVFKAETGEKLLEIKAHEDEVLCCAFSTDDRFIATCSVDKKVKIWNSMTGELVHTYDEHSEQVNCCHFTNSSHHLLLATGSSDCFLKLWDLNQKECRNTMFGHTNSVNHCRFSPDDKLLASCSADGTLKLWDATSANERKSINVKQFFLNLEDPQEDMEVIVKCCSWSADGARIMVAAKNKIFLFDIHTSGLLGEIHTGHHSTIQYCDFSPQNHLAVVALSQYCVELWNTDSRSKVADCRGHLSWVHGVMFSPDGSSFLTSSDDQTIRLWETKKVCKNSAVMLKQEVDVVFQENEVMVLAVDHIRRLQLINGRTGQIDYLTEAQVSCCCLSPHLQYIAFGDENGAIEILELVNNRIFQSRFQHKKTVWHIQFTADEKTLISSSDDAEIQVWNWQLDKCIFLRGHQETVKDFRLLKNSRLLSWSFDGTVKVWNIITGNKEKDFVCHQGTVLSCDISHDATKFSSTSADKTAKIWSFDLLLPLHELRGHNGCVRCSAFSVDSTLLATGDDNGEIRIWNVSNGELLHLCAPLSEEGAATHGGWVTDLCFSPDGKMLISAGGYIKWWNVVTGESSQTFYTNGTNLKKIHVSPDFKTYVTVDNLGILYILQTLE
In kind it is functional.

Test [10] concerns the target T6, Ubiquitin-conjugating enzyme E2 N (Homo sapiens, UniProt P61088).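 Further: Dose-response confirmation in a TR-FRET assay detecting UBC13-driven polyubiquitin chain formation, inhibition measured.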
T6 sequence (P61088 whole entry): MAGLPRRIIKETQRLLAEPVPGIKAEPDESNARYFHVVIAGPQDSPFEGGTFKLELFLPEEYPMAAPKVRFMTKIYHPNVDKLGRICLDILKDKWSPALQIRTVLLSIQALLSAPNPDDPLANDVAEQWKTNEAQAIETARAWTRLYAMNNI
In kind it is functional.

A short description of test [11]: NIH-3T3 fibroblast cytotoxicity, dose response, cytotoxicity control, cell-based, fluorescence, Alamar Blue, secondary assay (AID 2327).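 Further: NIH-3T3 mouse fibroblasts cultured with fluconazole at 8 µg/mL.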 The class given is functional.
A short description of test [12]: fluconazole-exposed Candida albicans growth modulators – fluorescence, retest, confirmation (AID 2467). In kind it is functional, cell-based.

Calls of active or inactive are those of the source.

T3 sequence (P11940 whole entry): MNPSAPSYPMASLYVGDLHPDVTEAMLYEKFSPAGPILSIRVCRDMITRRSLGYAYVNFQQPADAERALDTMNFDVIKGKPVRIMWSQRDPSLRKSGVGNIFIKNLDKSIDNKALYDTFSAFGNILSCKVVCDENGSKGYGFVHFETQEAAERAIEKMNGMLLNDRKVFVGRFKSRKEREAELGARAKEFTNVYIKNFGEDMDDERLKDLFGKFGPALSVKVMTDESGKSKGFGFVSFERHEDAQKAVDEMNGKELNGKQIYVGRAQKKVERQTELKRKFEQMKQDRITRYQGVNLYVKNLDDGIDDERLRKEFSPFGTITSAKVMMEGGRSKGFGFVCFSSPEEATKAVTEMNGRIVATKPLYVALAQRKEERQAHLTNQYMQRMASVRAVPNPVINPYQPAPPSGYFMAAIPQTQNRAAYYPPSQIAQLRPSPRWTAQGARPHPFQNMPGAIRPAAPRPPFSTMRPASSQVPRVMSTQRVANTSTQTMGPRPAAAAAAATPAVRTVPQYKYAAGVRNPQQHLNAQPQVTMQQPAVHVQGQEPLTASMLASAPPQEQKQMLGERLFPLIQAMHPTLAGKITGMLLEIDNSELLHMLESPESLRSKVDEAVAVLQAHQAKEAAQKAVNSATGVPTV

Regarding `CCC(NCCC(c1ccccc1)c1ccccc1)=C1C(=O)N(C)C(=O)N(C)C1=O`, the IC50 in [1] and in [2] was 5.26 µM (active) in each case.
On to `N#Cc1ccc(N2CCN(C(=O)CCCCCn3c(=S)[nH]c4ccccc4c3=O)CC2)cc1`, for which, in [3], the IC50 was 10.5 µM (not active).
In the case of `Cc1ccc(S(=O)(=O)C(c2ccccc2)c2c(C)noc2C)cc1` (stereo not drawn), the figures for the IC50 in test [1] and in [2] were > 35 µM (not active) and 3.92 µM (active), respectively.
A word on the CC50: it is the concentration giving 50% cytotoxicity. Turning to `COc1ccc(-c2cc(C(=O)N3CCCCCC3)c3ccccc3n2)c(OC)c1`, the CC50 in test [4] is 40.8 µM (active). Further, the IC50 in test [5] is 28 µM (active).
As to `C=CCn1c(SCC(=O)c2cc(C)n(C(C)COC)c2C)nc2sc(C)c(C)c2c1=O` (stereo not drawn), the IC50 was > 66 µM (inactive) in [6], > 66 µM (inactive) in test [7] and > 100 µM (active) in [8].
For the compound `Cc1ccc(NC(=O)CN(C)C(=O)c2ccc3[nH]c4c(c3c2)CC(C)CC4)cc1` (stereo not drawn), the CC50 in test [4] is 28.2 µM (active). The IC50 in [9] was > 100 µM (inactive); in test [10] it was > 20 µM (inactive); in [5] it was 22.2 µM (active).
By EC50 is commonly meant the concentration needed to bring the measured effect to its halfway point. On to `Cc1onc(-c2ccccc2Cl)c1C(=O)Nc1sc2c(c1C#N)CCC2`, for which the values for the IC50 in [1] and in [2] were 7.12 µM (active) and 5.86 µM (active), respectively. Besides, the EC50 was > 160 µM (inactive) in [11] and 1.59 µM (active) in test [12].
